ChEMBL document CHEMBL1134523, “Isomerization of (Z,Z) to (E,E)1-bromo-2,5-bis-(3-hydroxycarbonyl-4-hydroxy)styrylbenzene in strong base: probes for amyloid plaques in the brain” (J Med Chem, 2001)

Biological target: Amyloid-beta precursor protein (Homo sapiens, UniProt P05067)
Test: Inhibitory activity against binding of [125I]IMSB to amyloid beta in brain
Type: tissue-based

Sequence of Amyloid-beta precursor protein (P05067 whole entry): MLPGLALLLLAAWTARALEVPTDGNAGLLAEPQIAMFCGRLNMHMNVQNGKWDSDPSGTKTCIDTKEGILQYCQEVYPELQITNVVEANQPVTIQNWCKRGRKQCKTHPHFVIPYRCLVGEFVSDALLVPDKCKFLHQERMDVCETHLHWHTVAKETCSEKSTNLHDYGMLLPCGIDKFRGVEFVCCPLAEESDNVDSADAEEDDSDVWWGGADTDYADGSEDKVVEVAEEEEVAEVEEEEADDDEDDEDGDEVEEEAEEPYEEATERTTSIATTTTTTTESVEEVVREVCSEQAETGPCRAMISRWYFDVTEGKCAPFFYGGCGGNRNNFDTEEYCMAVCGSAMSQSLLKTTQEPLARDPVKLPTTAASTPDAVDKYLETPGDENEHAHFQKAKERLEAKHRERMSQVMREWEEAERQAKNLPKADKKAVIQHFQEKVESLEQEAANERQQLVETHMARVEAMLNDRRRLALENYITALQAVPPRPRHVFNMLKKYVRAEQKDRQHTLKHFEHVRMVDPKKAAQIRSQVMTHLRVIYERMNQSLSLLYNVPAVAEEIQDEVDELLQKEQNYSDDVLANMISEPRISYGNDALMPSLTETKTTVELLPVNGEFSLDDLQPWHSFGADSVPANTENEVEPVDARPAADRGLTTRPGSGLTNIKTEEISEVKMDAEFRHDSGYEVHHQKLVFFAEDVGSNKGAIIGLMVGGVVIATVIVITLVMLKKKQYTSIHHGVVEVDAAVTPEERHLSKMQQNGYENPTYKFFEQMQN

Ki [nM]	SMILES
0.19	O=C(O)c1cc(/C=C\c2ccc(/C=C/c3ccc(O)c(C(=O)O)c3)cc2Br)ccc1O
0.11	O=C(O)c1cc(/C=C/c2ccc(/C=C/c3ccc(O)c(C(=O)O)c3)c(Br)c2)ccc1O
0.13	O=C(O)c1cc(/C=C\c2ccc(/C=C\c3ccc(O)c(C(=O)O)c3)c(Br)c2)ccc1O
0.27	O=C(O)c1cc(/C=C\c2ccc(/C=C/c3ccc(O)c(C(=O)O)c3)c(Br)c2)ccc1O

SMILES	Ki [nM]
O=C(O)c1ccccc1O [SALICYLIC ACID]	> 1800
